The numbers were not newly measured in PMC5516028, “Molecular tools for GABAA receptors: High affinity ligands for β1-containing subtypes” (Scientific Reports, 2017), which cites them from elsewhere.

SMILES strings stand for the structures.

Some targets named below: α5β1γ2 GABAA receptors; α3β2γ2 GABAA receptors; α5β2γ2 GABAA receptors.
What all share (design): method as in earlier work
What all share (settings): published data, ref 1 (Supplementary References), read-out: Approximate EC50; cited from earlier work

In a further series the target is T1, α3β3γ2 GABAA receptors (Rattus norvegicus, UniProt P20236+P63079).
T1 construct: expressed in transfected cells; host or cells: Xenopus laevis oocytes, mRNA injected

The target of another series is T2, α4β3γ2 GABAA receptors (Rattus norvegicus, UniProt P28471+P63079).
T2 construct: expressed in transfected cells; host or cells: Xenopus laevis oocytes, mRNA injected

Another series concerns the target T3, α5β3γ2 GABAA receptors (Rattus norvegicus, UniProt P19969+P63079).
T3 construct: expressed in transfected cells; host or cells: Xenopus laevis oocytes, mRNA injected

In a further series the target is T4, α3β3 GABAA receptors (Rattus norvegicus, UniProt P20236+P63079).
T4 construct: expressed in transfected cells; host or cells: Xenopus laevis oocytes, mRNA injected
T4 sequence (P20236 29-493): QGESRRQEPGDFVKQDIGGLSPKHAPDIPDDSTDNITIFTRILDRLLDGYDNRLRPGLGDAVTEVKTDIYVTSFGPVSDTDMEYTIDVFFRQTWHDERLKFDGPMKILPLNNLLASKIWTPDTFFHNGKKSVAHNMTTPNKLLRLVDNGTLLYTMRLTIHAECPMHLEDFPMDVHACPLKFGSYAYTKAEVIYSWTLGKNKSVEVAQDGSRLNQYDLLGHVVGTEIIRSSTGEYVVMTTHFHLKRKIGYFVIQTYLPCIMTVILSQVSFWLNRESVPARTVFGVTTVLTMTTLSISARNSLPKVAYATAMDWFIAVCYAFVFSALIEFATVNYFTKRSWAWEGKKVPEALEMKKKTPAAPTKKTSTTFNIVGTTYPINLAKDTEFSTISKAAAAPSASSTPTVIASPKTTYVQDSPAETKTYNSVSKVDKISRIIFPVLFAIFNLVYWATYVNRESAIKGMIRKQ
T4 sequence (P63079 26-473): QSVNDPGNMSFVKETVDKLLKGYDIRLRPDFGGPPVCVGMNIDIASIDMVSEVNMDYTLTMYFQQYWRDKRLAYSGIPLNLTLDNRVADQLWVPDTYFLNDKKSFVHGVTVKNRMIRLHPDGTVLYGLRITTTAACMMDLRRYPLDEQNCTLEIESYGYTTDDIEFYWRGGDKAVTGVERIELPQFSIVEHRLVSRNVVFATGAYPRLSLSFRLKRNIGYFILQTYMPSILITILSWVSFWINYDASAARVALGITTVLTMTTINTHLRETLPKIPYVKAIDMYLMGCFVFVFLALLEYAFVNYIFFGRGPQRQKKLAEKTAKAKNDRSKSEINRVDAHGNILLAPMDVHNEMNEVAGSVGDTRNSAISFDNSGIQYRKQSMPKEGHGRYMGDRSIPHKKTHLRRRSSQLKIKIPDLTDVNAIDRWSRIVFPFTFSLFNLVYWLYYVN

T2 sequence (P28471 36-552): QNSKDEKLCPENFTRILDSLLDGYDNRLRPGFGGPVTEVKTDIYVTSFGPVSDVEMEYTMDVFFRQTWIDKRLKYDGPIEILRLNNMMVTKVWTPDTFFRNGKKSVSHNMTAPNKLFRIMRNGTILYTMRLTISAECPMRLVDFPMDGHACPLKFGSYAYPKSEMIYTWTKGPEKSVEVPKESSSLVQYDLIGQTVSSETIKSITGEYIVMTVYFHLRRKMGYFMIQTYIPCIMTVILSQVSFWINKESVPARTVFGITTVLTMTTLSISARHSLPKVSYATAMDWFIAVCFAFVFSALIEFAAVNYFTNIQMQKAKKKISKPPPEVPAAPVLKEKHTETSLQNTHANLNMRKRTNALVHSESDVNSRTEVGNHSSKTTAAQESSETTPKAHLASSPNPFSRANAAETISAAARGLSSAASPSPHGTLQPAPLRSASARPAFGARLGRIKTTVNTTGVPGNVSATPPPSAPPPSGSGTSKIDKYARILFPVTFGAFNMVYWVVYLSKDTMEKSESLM
T2 sequence (P63079 26-473): as the sequence (P63079 26-473) above
T2 sequence (P18508 39-466 partner): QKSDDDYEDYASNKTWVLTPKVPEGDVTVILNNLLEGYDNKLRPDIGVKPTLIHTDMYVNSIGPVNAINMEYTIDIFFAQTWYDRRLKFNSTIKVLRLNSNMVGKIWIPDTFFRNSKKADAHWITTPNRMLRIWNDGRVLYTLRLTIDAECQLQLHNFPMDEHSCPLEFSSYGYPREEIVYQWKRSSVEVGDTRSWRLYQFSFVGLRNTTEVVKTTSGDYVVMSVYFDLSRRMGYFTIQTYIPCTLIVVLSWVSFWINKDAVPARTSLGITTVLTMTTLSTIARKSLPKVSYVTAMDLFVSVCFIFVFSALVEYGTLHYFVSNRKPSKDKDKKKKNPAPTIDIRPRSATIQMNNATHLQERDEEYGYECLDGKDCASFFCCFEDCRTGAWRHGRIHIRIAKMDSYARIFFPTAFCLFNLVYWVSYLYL
T3 sequence (P19969 32-464 limits assumed): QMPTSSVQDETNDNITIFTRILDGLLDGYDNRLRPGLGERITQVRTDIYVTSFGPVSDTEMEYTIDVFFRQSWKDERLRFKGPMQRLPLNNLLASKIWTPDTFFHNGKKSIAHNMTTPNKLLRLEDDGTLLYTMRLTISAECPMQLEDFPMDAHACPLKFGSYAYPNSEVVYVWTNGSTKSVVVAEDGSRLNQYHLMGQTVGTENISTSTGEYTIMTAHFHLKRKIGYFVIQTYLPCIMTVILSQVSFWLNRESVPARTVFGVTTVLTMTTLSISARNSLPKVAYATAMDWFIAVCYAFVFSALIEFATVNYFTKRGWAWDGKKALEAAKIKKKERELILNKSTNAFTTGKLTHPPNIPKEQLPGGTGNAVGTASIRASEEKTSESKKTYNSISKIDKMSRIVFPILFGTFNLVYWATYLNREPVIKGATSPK
T3 sequence (P63079 26-473): as the sequence (P63079 26-473) above
T3 sequence (P18508 39-466 partner): as the sequence (P18508 39-466 partner) above
T1 sequence (P20236 29-493): as the sequence (P20236 29-493) above
T1 sequence (P63079 26-473): as the sequence (P63079 26-473) above
T1 sequence (P18508 39-466 partner): as the sequence (P18508 39-466 partner) above

With `COc1ccc(-n2nc3c4cc(Cl)ccc4[nH]cc-3c2=O)cc1` [Compound 1, 8-Chloro-2-(4-methoxyphenyl)-2H-pyrazolo[4,3-c]quinolin-3(5H)-one], the EC50 was around 1.5 µM on α3β3γ2 GABAA receptors; around 0.9 µM on α4β3γ2 GABAA receptors; around 0.6 µM at α5β3γ2 GABAA receptors; around 1.8 µM at α3β3 GABAA receptors; around 0.05 µM on α5β1γ2 GABAA receptors; around 2.1 µM at α3β2γ2 GABAA receptors. Moreover, the EC50 at α5β2γ2 GABAA receptors is around 3 µM.
